Converted amounts (≈) assume the structure as drawn.
What was measured:
AmpC (22) = test: MIC by agar dilution; type: cell-based, Enterobacteriaceae
Procedure, shortened: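 Agar dilution on peptone-free medium with 2% lysed horse blood, NAD and hemin (25.0 μg/mL each), compounds 0.0031 to 8.0 μg/mL; inoculum 10 000 CFU/spot, 22 h at 37° C. Fosfomycin tested in IsoSensitest medium plus 25.0 μg/mL glucose-6-phosphate; at least two replicates.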

Salmonella isolates = test: MIC by agar dilution; type: cell-based, Salmonella spp; details: three Salmonella isolates; read-out: MICs
Text: Bacterial isolates. […] These included Citrobacter freundii (n=5), other species of Citrobacter (n=4), Enterobacter aerogenes (n=1), Enterobacter cloacae (n=27), Escherichia coli (n=53), Klebsiella oxytoca (n=5), Klebsiella pneumoniae (n=87), Kluyvera spp (n=1), Proteus mirabilis (n=8), Providencia rettgeri (n=2), Salmonella spp (n=3), and Serratia marcescens (n=1). Among these 197 isolates, there were 128 (65%) carbapenemase producers, including; 87 with NDM-1, 9 with IMP, 11 with KPC, 14 with OXA-48 and 7 with VIM. The majority of the carbapenemase producers jointly produced broad-spectrum β-lactamases (BSBL) or cephalosporinases (AmpC β-lactamases), but the latter are not documented for the sake of clarity.
Determining the minimum inhibitory concentrations (MIC). All the MICs were determined using an agar dilution method. This required use of a medium without a defined antagonist (peptone-free), prepared as described previously with the inclusion of 2% horse blood lysed with saponin, 25.0 μg/mL of NAD and 25.0 μg/mL of hemin [17]. […] The MICs of fosfomycin were determined by the same method, except that the IsoSensitest medium (Oxoid, Basingstoke, United Kingdom) was used, plus 25.0 μg/mL of glucose-6-phosphate (Sigma, Poole, United Kingdom) and an extended range of fosfomycin concentrations. […]

C[C@H](N)C(=O)N[C@@H](C)P(=O)(O)O [Alafosfalin, L-alanyl-L-1-aminoethylphosphonic acid]
MIC50 (AmpC (22)): 4 µg/mL (≈ 20.4 µM)
MIC90 (AmpC (22)): > 8 µg/mL
MIC (AmpC (22); read-out: Modal MIC (most frequent MIC)): > 8 µg/mL
MIC (Salmonella isolates): ≥ 8 µg/mL
